Assays:
[1] = Antioxidant activity assessed as total reducing activity after 30 mins by spectrophotometric analysis; assay type: functional
[2] = test system: Radical scavenging activity; experiment: Antioxidant activity assessed as DPPH free radical scavenging activity after 30 mins by spectrophotometric analysis; assay type: functional
[3] = Antioxidant activity assessed as nitric oxide scavenging activity after 150 mins by spectrophotometric analysis; assay type: functional; parameters: concentration or dose not given beside the values
[4] = Antioxidant activity assessed as EDTA chelating effect after 10 mins by spectrophotometric analysis; assay type: functional
[5] = Antioxidant activity assessed as ferric ion reducing ability by spectrophotometric analysis; assay type: functional
[6] = Antioxidant activity assessed as super oxide scavenging activity after 150 mins by spectrophotometric analysis; assay type: functional; parameters: concentration or dose not given beside the values
[7] = Toxicity in po dosed Wistar rat; assay type: organism-based; conditions: in vivo
Rattus norvegicus [8] = experiment: Toxicity in Wistar rat assessed as incidence of convulsion at 200 mg/kg, po measured after 24 hrs; assay type: organism-based; parameters: dose 200 mg/kg, route oral; conditions: in vivo
Rattus norvegicus [9] = experiment: Toxicity in Wistar rat fed 4 hrs post dosing assessed as incidence of adverse effects at 2 mg/kg, po administered as single dose measured on day 14; assay type: organism-based; parameters: dose 2 mg/kg, route oral; conditions: in vivo
Rattus norvegicus [10] = experiment: Toxicity in Wistar rat assessed as grip strength at 200 mg/kg, po measured after 24 hrs; assay type: organism-based; parameters: dose 200 mg/kg, route oral; conditions: in vivo
Rattus norvegicus [11] = experiment: Toxicity in Wistar rat assessed as pupil dilatation at 200 mg/kg, po measured after 24 hrs; assay type: organism-based; parameters: dose 200 mg/kg, route oral; conditions: in vivo
Rattus norvegicus [12] = experiment: Toxicity in Wistar rat assessed as incidence of tremor at 200 mg/kg, po measured after 24 hrs; assay type: organism-based; parameters: dose 200 mg/kg, route oral; conditions: in vivo
Rattus norvegicus [13] = experiment: Toxicity in Wistar rat fed 4 hrs post dosing assessed as incidence of adverse effects at 2 mg/kg, po administered as single dose measured on day one; assay type: organism-based; parameters: dose 2 mg/kg, route oral; conditions: in vivo

Compound | Activity [1] | Activity [2] | Activity [3] | Activity [4] | Activity [5] | Activity [6] | MTD [7] | Activity (Rattus norvegicus [8]) | Activity (Rattus norvegicus [9]) | Activity (Rattus norvegicus [10]) | Activity (Rattus norvegicus [11]) | Activity (Rattus norvegicus [12]) | Activity (Rattus norvegicus [13])
Cc1[nH]nc2c1c(=O)[nH]c1ccccc12 | 1230 µmol | 1110 µg | 18.5% | 10.4 mg | 150 mmol | 8.7% |  |  |  |  |  |  | 
COc1ccc(O)c(C(C)(C)C)c1.COc1ccc(O)cc1C(C)(C)C | 8050 µmol | 170 µg | 79.1% | 16.1 mg |  | 76.5% |  |  |  |  |  |  | 
Cc1nc(=O)[nH]c2c1c(=O)[nH]c1ccccc12 | 3880 µmol | 1410 µg | 62.3% | 10.7 mg | 205 mmol | 38% | 2000 mg/kg | Toxic | Non-toxic | Toxic | Toxic | Toxic | Non-toxic
Cc1noc2c1c(=O)[nH]c1ccccc12 | 4010 µmol | 466 µg | 40.3% | 4.9 mg | 169 mmol | 16.6% |  |  |  |  |  |  | 
CC1=NNC(=O)Nc2c1c(=O)[nH]c1ccccc21 | 2590 µmol | 540 µg | 16.1% | 12.3 mg |  | 40.9% |  |  |  |  |  |  | 
CC1=NNC(=S)Nc2c1c(=O)[nH]c1ccccc21 | 2650 µmol | 752 µg | 61.6% | 9.1 mg |  | 74.5% | 2000 mg/kg | Toxic | Non-toxic | Toxic | Toxic | Toxic | Non-toxic
Cc1cc(C(C)(C)C)c(O)c(C(C)(C)C)c1 | 13100 µmol | 150 µg | 92.1% | 13.2 mg | 134 mmol | 87.1% |  |  |  |  |  |  | 
Cc1nc(=S)[nH]c2c1c(=O)[nH]c1ccccc12 | 3630 µmol | 1040 µg | 12% | 9.6 mg | 145 mmol | 22.4% |  |  |  |  |  |  | 
